Several values for one entry are separate records, joined by “and”; a condition that tells them apart may be missing. Equal values may be shown once.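 1) Cells in 96-well plates. 2) Compound, 48 h, 5 concentrations. 3) Linear interpolation between surrounding doses. 4) Unreached endpoint = highest concentration. Here, GI50 denotes the concentration required for 50% inhibition of growth. TGI marks complete inhibition of growth.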

Some test systems named below: A549 NSCLC; DU-145 prostate; HOP-62 NSCLC; IGROV1 ovarian; KM12 colon; NCI-H522 lung; SF-268 CNS; SK-MEL-5 melanoma; SNB-19 CNS; UACC-257 melanoma.
Assay in all cases: growth of human tumour cells (NCI), 48 h

In the case of `CCc1nc(C(N)=O)c(Nc2ccc(N3CCC(N4CCN(C)CC4)CC3)c(OC)c2)nc1NC1CCOCC1`, the GI50 was 2.35 µM and 0.379 µM and 2.61 µM in the assay on A549 NSCLC; 0.904 µM and 0.359 µM and 0.719 µM with DU-145 prostate; 1.26 µM and 0.238 µM and 1.2 µM in the assay on HOP-62 NSCLC; 0.876 µM and 0.279 µM and 0.79 µM in the assay on IGROV1 ovarian; 0.0933 µM and 0.0338 µM and 0.0649 µM in the assay with KM12 colon; 4.96 µM and 0.763 µM and 6.27 µM in the assay on NCI-H522 lung. The GI50 in the assay with SK-MEL-5 melanoma was 12.4 µM and > 10 µM and 13.2 µM. The TGI was 15.2 µM and > 10 µM and 16.1 µM in the assay on A549 NSCLC; 18.5 µM and > 10 µM and 17.3 µM in the assay on DU-145 prostate; 16.3 µM and > 2.98 µM and 17.6 µM with HOP-62 NSCLC; 8.09 µM and > 10 µM and 8.12 µM in the assay on IGROV1 ovarian; 12.8 µM and > 10 µM and 12 µM with KM12 colon; 21.7 µM and > 2.52 µM and 23.9 µM in the assay with NCI-H522 lung. Moreover, the TGI was 22.8 µM and > 2.72 µM and 24.5 µM with SF-268 CNS; 25.4 µM and > 10 µM and 26.4 µM in the assay with SK-MEL-5 melanoma; 20.2 µM and > 10 µM and 22.7 µM in the assay with SNB-19 CNS; 24.5 µM and > 10 µM and 24.3 µM in the assay with UACC-257 melanoma.

Consider `Br[C](Br)(Br)[Hg][c]1ccccc1`, for which the GI50 in the assay on A549 NSCLC was 29.4 µM; in the assay on DU-145 prostate, 18.1 µM; in the assay on HOP-62 NSCLC it was 13.4 µM; in the assay with IGROV1 ovarian, 13.8 µM; with KM12 colon, 15.6 µM; in the assay with NCI-H522 lung, 1.44 µM. Besides, the GI50 is 24.1 µM in the assay on SF-268 CNS, 11.7 µM in the assay on SK-MEL-5 melanoma, 16.6 µM in the assay on SNB-19 CNS and 13.5 µM in the assay with UACC-257 melanoma. The TGI was determined as 59.5 µM in the assay on A549 NSCLC; 35 µM in the assay with DU-145 prostate; 18.7 µM in the assay with HOP-62 NSCLC; 27.6 µM in the assay on IGROV1 ovarian; 29.4 µM with KM12 colon; 3.05 µM in the assay with NCI-H522 lung. The TGI in the assay with SF-268 CNS was 56.2 µM; with SK-MEL-5 melanoma, 24.8 µM; in the assay with SNB-19 CNS, 30.6 µM; in the assay with UACC-257 melanoma it was 26.7 µM.

For `CC/C=C\C[C@H]1C/C=C2/C(=O)C=C[C@@H]2C/C=C\CCCC(=O)O1`, the GI50 with A549 NSCLC was 2.23 µM; in the assay with DU-145 prostate, 0.816 µM; with HOP-62 NSCLC, 1.81 µM; in the assay on IGROV1 ovarian, 1.69 µM; with KM12 colon, 0.94 µM; in the assay with NCI-H522 lung, 0.57 µM. Besides, the GI50 was 2.16 µM in the assay on SF-268 CNS, 1.38 µM in the assay on SK-MEL-5 melanoma, 2.09 µM with SNB-19 CNS and 1.78 µM with UACC-257 melanoma. The TGI in the assay with A549 NSCLC was 9.05 µM; in the assay on DU-145 prostate, 5.79 µM; with HOP-62 NSCLC it was 5.39 µM; in the assay on IGROV1 ovarian it was 4.28 µM; in the assay on KM12 colon, 4.44 µM; in the assay with NCI-H522 lung it was 2.45 µM. Also, the TGI came out at 9.49 µM in the assay on SF-268 CNS, 2.74 µM in the assay on SK-MEL-5 melanoma, 11.7 µM in the assay with SNB-19 CNS and 5.23 µM with UACC-257 melanoma.

Regarding `CC1=C[C@H]2c3c(c(O)c(O)c4oc(-c5ccccc5)cc(=O)c34)[C@H](c3cc(O)c(O)c4oc(-c5ccccc5)cc(=O)c34)[C@H]2C(C)(C)C1`, the GI50 in the assay on A549 NSCLC was 0.29 µM; in the assay on DU-145 prostate, 0.408 µM; in the assay on HOP-62 NSCLC it was 0.76 µM; in the assay on IGROV1 ovarian, 0.486 µM; in the assay with KM12 colon it was 1.41 µM; with NCI-H522 lung, 1.77 µM. For the same molecule, the GI50 was 0.541 µM in the assay on SF-268 CNS, 0.974 µM with SK-MEL-5 melanoma, 0.557 µM in the assay with SNB-19 CNS and 1.72 µM with UACC-257 melanoma. Moreover, the TGI was 13.8 µM in the assay with A549 NSCLC; above 75 µM in the assay on DU-145 prostate; 12.9 µM with HOP-62 NSCLC; 7.51 µM with IGROV1 ovarian; 8.96 µM in the assay on KM12 colon; 6.23 µM with NCI-H522 lung. Besides, the TGI came out at 17 µM with SF-268 CNS, 2.16 µM in the assay on SK-MEL-5 melanoma, 17 µM in the assay on SNB-19 CNS and 9.47 µM in the assay with UACC-257 melanoma.

For the molecule `CN(C)C(=O)[C@H](O)[C@H](Cc1ccccc1)NC(=O)c1cc2cc(Cl)ccc2[nH]1`, the GI50 with A549 NSCLC was 24 µM; in the assay with DU-145 prostate, 33.3 µM; in the assay on HOP-62 NSCLC it was 22.6 µM; in the assay with IGROV1 ovarian, 22.4 µM; in the assay on KM12 colon, 27.2 µM; with NCI-H522 lung, 21.5 µM. For the same molecule, the GI50 with SF-268 CNS is 21.1 µM; with SK-MEL-5 melanoma it was 15.6 µM; in the assay on SNB-19 CNS, 26.1 µM; in the assay on UACC-257 melanoma it was 16.2 µM. Moreover, the TGI in the assay on A549 NSCLC was above 93.3 µM; in the assay with DU-145 prostate, above 100 µM; in the assay on HOP-62 NSCLC, 66.6 µM; with IGROV1 ovarian, 69.1 µM; in the assay with KM12 colon, above 87.7 µM; with NCI-H522 lung it was 68.7 µM. Besides, the TGI was 73.3 µM with SF-268 CNS, 30.6 µM in the assay with SK-MEL-5 melanoma, above 100 µM in the assay on SNB-19 CNS and 43.5 µM with UACC-257 melanoma.

Consider `C[C@]12CC[C@@H]3c4cc(OCC(F)(F)F)c(O)cc4/C(=N/O)C[C@H]3[C@@H]1CC[C@@H]2O`, for which the TGI in the assay with A549 NSCLC was 35.6 µM; in the assay with DU-145 prostate it was above 54 µM; in the assay with HOP-62 NSCLC, 0.419 µM; in the assay with IGROV1 ovarian it was 20 µM; in the assay on KM12 colon, 11.2 µM; with NCI-H522 lung, 25.6 µM. Moreover, the TGI is 21.7 µM in the assay with SF-268 CNS, 12.5 µM in the assay with SK-MEL-5 melanoma, above 63.1 µM in the assay with SNB-19 CNS and 45.5 µM in the assay on UACC-257 melanoma. In addition, the GI50 in the assay on DU-145 prostate is 0.0673 µM; in the assay with HOP-62 NSCLC, 0.029 µM; with NCI-H522 lung, 0.0507 µM.
